Read-outs that look alike come from different tables or passages of the source.
Tests used:
[1] = known Hsp90 inhibitors, cited from earlier work
P-glycoprotein = P-glycoprotein (Homo sapiens (Human), UniProt P08183); conditions: known Hsp90 inhibitor, cited from earlier work
p35 = assay: p35, Tau phosphorylation and Hsp70 in primary rat cortical neurons and COS-7/p35, COS-7/p35/Tau cells; type: cell-based; conditions: compared with PU24FC1
From the text: Embryonic primary rat cortical neurons and COS-7 cells transfected with cDNAs corresponding to either p35 alone (COS-7/p35) or both p35 and Tau (COS-7/p35/Tau) are relevant experimental systems to study aberrant neuronal kinase activity because phosphorylation of Tau at putative cdk5 sites is both enhanced in these cells and in embryonic and juvenile brains (50, 52) and is similar to that in AD-afflicted brains (50). […]
To further examine the roles played by Hsp90 in tauopathy, we made use of both PU24FC1 and 17-(allyllamino)-17-demethoxygeldanamycin (17AAG) and investigated their effects on both cdk5/p35 and TauP301L in primary neuronal and COS-7 cell cultures. […] After incubation, cells were harvested and lysed in 2% SDS, and the resulting samples were analyzed by Western blotting.
We detected a dose- and time-dependent degradation of p35 by PU24FC1 in primary neurons, as well as in COS-7/p35 and COS-7/p35/Tau cells. […] Reduction of p35 levels by Hsp90 inhibition affected the activity of the cdk5/p35 complex, as measured using a substrate of cdk5, the histone-H1.

[2] = cited from earlier work
[3] = tested on: tau phosphorylation at pathological sites; assay: Tau phosphorylation in AD cellular models; type: cell-based

P-glycoprotein, sequence (P08183 whole entry): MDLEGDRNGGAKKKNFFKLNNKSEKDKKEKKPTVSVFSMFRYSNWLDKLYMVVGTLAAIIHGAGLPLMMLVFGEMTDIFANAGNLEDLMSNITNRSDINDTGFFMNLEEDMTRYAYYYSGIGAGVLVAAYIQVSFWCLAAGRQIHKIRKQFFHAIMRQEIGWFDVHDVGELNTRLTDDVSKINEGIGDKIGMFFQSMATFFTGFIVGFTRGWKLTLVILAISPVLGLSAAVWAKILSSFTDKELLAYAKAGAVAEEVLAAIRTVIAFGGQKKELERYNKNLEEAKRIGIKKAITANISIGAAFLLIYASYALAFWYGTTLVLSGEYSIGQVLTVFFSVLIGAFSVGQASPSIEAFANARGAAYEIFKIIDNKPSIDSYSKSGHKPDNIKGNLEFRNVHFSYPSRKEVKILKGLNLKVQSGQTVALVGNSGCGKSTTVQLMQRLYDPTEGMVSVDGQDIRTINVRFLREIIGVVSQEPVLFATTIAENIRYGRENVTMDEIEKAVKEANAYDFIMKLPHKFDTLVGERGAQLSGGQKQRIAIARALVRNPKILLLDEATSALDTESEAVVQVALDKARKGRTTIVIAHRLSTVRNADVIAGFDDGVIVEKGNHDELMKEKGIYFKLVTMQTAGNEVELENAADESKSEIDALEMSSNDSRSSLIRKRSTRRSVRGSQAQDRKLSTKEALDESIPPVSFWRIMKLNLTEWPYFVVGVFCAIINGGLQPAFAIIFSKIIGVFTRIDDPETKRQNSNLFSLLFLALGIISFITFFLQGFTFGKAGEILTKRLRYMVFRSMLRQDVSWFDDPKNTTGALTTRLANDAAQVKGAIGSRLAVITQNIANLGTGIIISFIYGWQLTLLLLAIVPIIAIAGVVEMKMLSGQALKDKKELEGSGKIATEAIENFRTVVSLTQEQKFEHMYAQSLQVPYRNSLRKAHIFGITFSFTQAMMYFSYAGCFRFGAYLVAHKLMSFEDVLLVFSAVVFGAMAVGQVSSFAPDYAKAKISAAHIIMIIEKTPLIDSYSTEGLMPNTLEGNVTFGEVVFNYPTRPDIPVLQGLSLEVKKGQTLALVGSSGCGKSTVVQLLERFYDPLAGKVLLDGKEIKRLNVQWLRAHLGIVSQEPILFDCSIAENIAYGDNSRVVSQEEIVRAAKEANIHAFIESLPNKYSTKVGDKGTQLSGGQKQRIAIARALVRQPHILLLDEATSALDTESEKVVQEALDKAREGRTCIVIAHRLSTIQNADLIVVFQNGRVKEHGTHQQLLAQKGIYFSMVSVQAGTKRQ

C=CCNC1=C2C[C@@H](C)C[C@H](OC)[C@H](O)[C@@H](C)/C=C(\C)[C@H](OC(N)=O)[C@@H](OC)/C=C\C=C(/C)C(=O)NC(=CC1=O)C2=O [Compound 17AAG, 17-(allyllamino)-17-demethoxygeldanamycin]
crossing of the blood-brain barrier [1]: do not cross the blood-brain barrier | crossing of the blood-brain barrier ([1]; listed as 17-AAG): does not effectively cross the blood brain barrier | P-gp substrate (P-glycoprotein): P-gp substrate | P-gp substrate (P-glycoprotein; listed as 17-AAG): P-glycoprotein substrate | effects on p35 and mTau (p35): Analogous effects | solubility [2]: poorly soluble

COC1=C2C[C@@H](C)C[C@H](OC)[C@H](O)[C@@H](C)/C=C(\C)[C@H](OC(N)=O)[C@@H](OC)/C=C\C=C(/C)C(=O)NC(=CC1=O)C2=O [geldanamycin]
tau phosphorylation levels at pathological sites [3]: reduced | crossing of the blood-brain barrier [1]: do not cross the blood-brain barrier | solubility [2]: poorly soluble

C[C@@H]1C[C@H]2O[C@@H]2/C=C\C=C\C(=O)Cc2c(Cl)c(O)cc(O)c2C(=O)O1 [radicicol]
crossing of the blood-brain barrier [1]: do not cross the blood-brain barrier | solubility [2]: poorly soluble

Source: patent US10336757B2, “Treatment of neurodegenerative diseases through inhibition of HSP90” (Sloan-Kettering Institute for Cancer Research, priority 2006, dated 2019)
